Here are results for 22 compounds from patent US8138361B2, “C-10 carbamates of taxanes” (The Trustees Of The University Of Pennsylvania, priority 2005, dated 2012).

Like-named read-outs stand apart in the source and are kept apart here.

Assay [1] relates to tubulin. Nature of the assay: Tubulin polymerization assay (ability to promote polymerization of tubulin). In kind it is biochemical. An excerpt:
The kit is based upon an increase in quantum yield of florescence upon binding of a fluorophore to microtubules. […] Tubulin assembly may also be monitored by light scattering which is approximated by the apparent absorption at 350 nm. In the assay, BSA is employed to prevent aggregation and glycerol, which is a tubulin polymerization enhancer, is omitted from the kit to increase the signal to noise ratio. […]

The subject of assay [2] is tumor cell lines. Nature of the assay: Cytotoxicity assay (AlamarBlue, monolayer). The assay is classed as cell-based. As for the experimental part:
Monolayer assays with tumor cell lines (MCF-7 breast carcinoma and HT-29 colorectal carcinoma from ATCC) were carried out in triplicate in 96-well plates with PMI1640 medium containing 5% fetal bovine serum, 100 U/ml penicillin and 100 μg/ml streptomycin. […] Exponentially growing cells (5,000 MCF-7 or HT-29; 1,500 HFF) were plated in 100 μl medium and incubated overnight (5% CO2, 37° C.). Compounds (20 pM to 20 μM final concentration, 6-8 doses) and vehicle (DMSO) controls were added and the incubation was continued for an additional 72 hours. […] EC50 values were generated from dose-response curves by a 4-parameter method using Softmax PRO software, Mean FC50s (±SD) represent the average of all tests carried out for all lots of a given compound.
1. Cells: • a. Breast tumor cell lines, MCF-7 and NCI/ADR-RES • b. Colon tumor cell lines: HCT-15 and HT-29 • c. Leukemia cell line K562 and K562/R • d. Non-small cell lung cancer cell line A549 • e. Human foreskin fibroblast cells (HFF) • f. Human umbilical vein endothelial cells (HUVEC)
2. Cell Culture: • a. All tumor cells were grown in RPMI1640 medium supplemented with 5% (v/v) fetal bovine serum and the antibiotics in a final concentration of 100 U/ml of penicillin and 100 μg/ml of streptomycin in an atmosphere of 5% CO2. • b. HFF and HUVEC were grown in the medium of FGM-2 and EGM-2 from Cambrex,
3. Cytotoxicity Assay: • a. Day 1: Cells growing exponentially were transferred to 96-well tissue culture plates. All cell types were plated at a density of 1,500-5,000 cells per well in 100 μl complete medium. • b. Day 2: 100 μl of experimental compounds in complete medium was added in triplicate wells, • c. Day 5; Cell growth inhibition was assayed using the AlamarBlue (BioSource, Camarillo, Calif.) signal reduction assay. Correlation between AlamarBlue and cell proliferation has been established in the literature. Compound concentration versus relative fluorescence units was plotted.
Detailed procedures for conducting the assays are provided herein and are known in the art.

The target in assay [3] is T1, Pgp (Bos taurus, UniProt A0A3Q1MB23).
T1 construct: Bovine Brain Endothelial Cells (BBEC) express Pgp; endogenous in cells; host or cells: Bovine Brain Endothelial Cells (BBEC)
Nature of the assay: Rhodamine 123 uptake assay in Bovine Brain Endothelial Cells (BBEC). The settings on record: 25 micromolar; for Rhodamine 123 uptake: 45 min incubation, fluorescence normalized to protein content, average. In kind it is cell-based. As for the experimental part: Bovine Brain Endothelial Cells (BBEC) express Pgp and are commonly used as model for Blood Brain Barrier (BBB).
All compounds and controls were run in triplicates.
The experiment was run in two 24-wells plates. […] After addition of the test compounds, cells were incubated for 45 min. After this time the drug solutions were removed by aspiration. The monolayers were then rinsed three times with ice-cold PBSG and finally solubilized with 1 mL of lysing solution for 30 min.

The mark [4] stands for this setting: average %, relative to paclitaxel.
Where [5] appears, read: average EC50, cell line not given, 72 hours incubation.

T1 sequence (A0A3Q1MB23 1-1267): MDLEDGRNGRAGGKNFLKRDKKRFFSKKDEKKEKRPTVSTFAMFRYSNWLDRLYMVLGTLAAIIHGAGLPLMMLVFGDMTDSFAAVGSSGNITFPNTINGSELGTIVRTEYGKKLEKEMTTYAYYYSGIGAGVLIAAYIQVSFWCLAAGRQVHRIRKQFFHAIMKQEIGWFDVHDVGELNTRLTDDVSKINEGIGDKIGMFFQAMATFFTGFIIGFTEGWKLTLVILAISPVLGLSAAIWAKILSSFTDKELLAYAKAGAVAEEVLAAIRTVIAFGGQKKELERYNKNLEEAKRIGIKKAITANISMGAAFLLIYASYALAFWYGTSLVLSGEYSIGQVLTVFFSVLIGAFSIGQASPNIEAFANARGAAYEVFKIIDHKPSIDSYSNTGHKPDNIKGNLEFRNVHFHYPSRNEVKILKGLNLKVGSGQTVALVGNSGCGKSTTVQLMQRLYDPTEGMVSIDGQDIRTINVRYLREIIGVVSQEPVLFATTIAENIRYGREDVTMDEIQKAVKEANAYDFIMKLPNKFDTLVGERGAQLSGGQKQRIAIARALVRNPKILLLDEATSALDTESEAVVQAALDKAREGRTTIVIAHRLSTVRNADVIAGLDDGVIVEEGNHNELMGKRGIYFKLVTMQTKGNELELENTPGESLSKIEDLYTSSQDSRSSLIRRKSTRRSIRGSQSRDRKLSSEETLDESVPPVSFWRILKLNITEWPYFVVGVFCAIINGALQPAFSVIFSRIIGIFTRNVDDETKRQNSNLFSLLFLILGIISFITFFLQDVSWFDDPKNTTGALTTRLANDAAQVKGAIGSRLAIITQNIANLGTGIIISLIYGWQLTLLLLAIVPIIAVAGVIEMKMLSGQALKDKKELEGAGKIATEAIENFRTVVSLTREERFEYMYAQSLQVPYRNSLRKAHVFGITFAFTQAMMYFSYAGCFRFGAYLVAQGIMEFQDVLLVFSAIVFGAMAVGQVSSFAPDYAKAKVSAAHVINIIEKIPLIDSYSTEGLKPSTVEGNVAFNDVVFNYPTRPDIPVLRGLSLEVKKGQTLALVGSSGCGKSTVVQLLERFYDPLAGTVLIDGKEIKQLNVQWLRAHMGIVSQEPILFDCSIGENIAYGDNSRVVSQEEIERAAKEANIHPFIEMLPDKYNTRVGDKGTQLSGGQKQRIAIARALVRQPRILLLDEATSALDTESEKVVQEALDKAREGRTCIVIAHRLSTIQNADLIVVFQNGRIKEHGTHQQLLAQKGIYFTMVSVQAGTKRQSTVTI

As for `CC(=O)OC12COC1CC(O)C1(C)C(=O)C(OC(=O)N3CCOCC3)C3=C(C)C(OC(=O)C(O)C(NC(=O)c4ccccc4)c4ccccc4)CC(O)(C(OC(=O)c4ccccc4)C21)C3(C)C` (centres unmarked) [Compound 7, PXL-10Ca-Morpholine], the “MPA: ability of the compound to promote polymerization of tubulin, expressed as percentage of the activity of paclitaxel” value in assay [1] is “a (key: a > 70%; b = 30-70%; c < 40%)”. For the same compound, the concentration giving a half-maximal response (EC50) in assay [2] was in the range of 10 to 500 nM.

On to `CC(=O)OC12COC1CC(O)C1(C)C(=O)C(OC(=O)n3cnc4ccccc43)C3=C(C)C(OC(=O)C(O)C(NC(=O)c4ccccc4)c4ccccc4)CC(O)(C(OC(=O)c4ccccc4)C21)C3(C)C` (centres unmarked) [Compound 8, 10-O-deacetyl-paclitaxel-10-O-carbonyl-N-benzimidazole], for which the “MPA: ability of the compound to promote polymerization of tubulin, expressed as percentage of the activity of paclitaxel” value in assay [1] (setting [4]) is reported as “b (b = 30-70%)”.

Regarding `CC(=O)OC12COC1CC(O)C1(C)C(=O)C(OC(=O)NCC(=O)O)C3=C(C)C(OC(=O)C(O)C(NC(=O)c4ccccc4)c4ccccc4)CC(O)(C(OC(=O)c4ccccc4)C21)C3(C)C` (centres unmarked) [Compound 12, PXL-10Ca-Gly-OH], in assay [2], the 50% effective concentration (EC50) was > 500 nM. Further, the “Rhodamine 123 uptake” value in assay [3] was “a (a < 0.25)”.

With `CC(=O)OC12COC1CC(O)C1(C)C(=O)C(OC(=O)N(C)CC(=O)O)C3=C(C)C(OC(=O)C(O)C(NC(=O)c4ccccc4)c4ccccc4)CC(O)(C(OC(=O)c4ccccc4)C21)C3(C)C` (centres unmarked) [Compound 13, PXL-10Ca-Sar-OH], in assay [2] (setting [5]), the EC50 was > 500 nM. Besides, in assay [3], the “Rhodamine 123 uptake” value was “b (b = >0.25)”.

Regarding `COC(=O)C(C)NC(=O)OC1C(=O)C2(C)C(O)CC3OCC3(OC(C)=O)C2C(OC(=O)c2ccccc2)C2(O)CC(OC(=O)C(O)C(NC(=O)c3ccccc3)c3ccccc3)C(C)=C1C2(C)C` (centres unmarked) [Compound 39, PXL-10Ca-alanine-Me-ester], in assay [2], the EC50 is < 10 nM.

For the compound `CC(=O)O[C@H]1C(=O)[C@@]2(C)[C@H]([C@H](OC(=O)c3ccccc3)[C@]3(O)C[C@H](OC(=O)[C@H](O)[C@@H](NC(=O)c4ccccc4)c4ccccc4)C(C)=C1C3(C)C)[C@]1(OC(C)=O)CO[C@@H]1C[C@@H]2O` [PXL, Paclitaxel, reference compound], in assay [3], the “effect on rhodamine uptake (in words)” value is on record as “higher rhodamine uptake” and the “Rhodamine 123 uptake” value was “b (b = >0.25)”.

PXL-10Ca-Glu displayed a concentration for a half-maximal effect (EC50) in assay [2] (setting [5]) of 10 to 500 nM.

Regarding PXL-10Ca-Glucosamine [Compound 5], the “MPA: ability of the compound to promote polymerization of tubulin, expressed as percentage of the activity of paclitaxel” value in assay [1] (setting [4]) is listed as “a (a > 70%)”. Further, in assay [2] (setting [5]), the EC50 was > 500 nM.

For PXL-10Ca-Gly(tBu) [Compound 14], the “MPA: ability of the compound to promote polymerization of tubulin, expressed as percentage of the activity of paclitaxel” value in assay [1] (setting [4]) is recorded as “b (b = 30-70%)”. Also, in assay [2] (setting [5]), the concentration for a half-maximal effect (EC50) lay within 10 to 500 nM. The “Rhodamine 123 uptake” value in assay [3] is on record as “b (b = >0.25)”.

In turn, PXL-10Ca-Gly-N(Me)2 [Compound 15] showed a half-maximal effective concentration (EC50) in assay [2] (setting [5]) of 10 to 500 nM. The “Rhodamine 123 uptake” value in assay [3] is on record as “a (a < 0.25)”.

As for PXL-10Ca-H-Lys-OH [Compound 20], the “MPA: ability of the compound to promote polymerization of tubulin, expressed as percentage of the activity of paclitaxel” value in assay [1] (setting [4]) is reported as “a (a > 70%)”. The EC50 in assay [2] (setting [5]) is > 500 nM.

In the case of “PXL-10Ca-N-methyl-N-butylamine [Compound 22]”, the “MPA: ability of the compound to promote polymerization of tubulin, expressed as percentage of the activity of paclitaxel” value in assay [1] (setting [4]) is on record as “a (a > 70%)”. The concentration giving a half-maximal response (EC50) in assay [2] (setting [5]) was < 10 nM.

As to PXL-10Ca-PEG6000-10Ca-PXL [Compound 29], in assay [1] (setting [4]), the “MPA: ability of the compound to promote polymerization of tubulin, expressed as percentage of the activity of paclitaxel” value is given as “a (a > 70%)”.

Regarding PXL-10Ca-PEG(14)-COOH [Compound 25], the “MPA: ability of the compound to promote polymerization of tubulin, expressed as percentage of the activity of paclitaxel” value in assay [1] (setting [4]) was “a (a > 70%)”. In addition, the EC50 in assay [2] (setting [5]) is > 500 nM.

In the case of PXL-10Ca-PEG(29)-VBL [Compound 28], the “MPA: ability of the compound to promote polymerization of tubulin, expressed as percentage of the activity of paclitaxel” value in assay [1] (relative to paclitaxel, given as number) worked out at 40%. Moreover, the EC50 in assay [2] (setting [5]) was 10 to 500 nM.

For PXL-10Ca-Ph-acetic acid [Compound 10], the “MPA: ability of the compound to promote polymerization of tubulin, expressed as percentage of the activity of paclitaxel” value in assay [1] (setting [4]) was “a (a > 70%)”. Moreover, the EC50 in assay [2] (setting [5]) was > 500 nM.

As for PXL-10Ca-Z-Lys-OH [Compound 19], in assay [1] (setting [4]), the “MPA: ability of the compound to promote polymerization of tubulin, expressed as percentage of the activity of paclitaxel” value is “a (a > 70%)”. In assay [2] (setting [5]), the EC50 was > 500 nM.

Turning to PXL-10Ca-aniline [Compound 9], in assay [1] (setting [4]), the “MPA: ability of the compound to promote polymerization of tubulin, expressed as percentage of the activity of paclitaxel” value is listed as “b (b = 30-70%)”. In addition, the EC50 in assay [2] (setting [5]) fell in the range of 10 to 500 nM.

As to PXL-10Ca-di-Et-amine [Compound 23], the “MPA: ability of the compound to promote polymerization of tubulin, expressed as percentage of the activity of paclitaxel” value in assay [1] (setting [4]) was “c (c < 40%)”. The same compound yielded an EC50 in assay [2] (setting [5]) of 10 to 500 nM.

Consider PXL-10Ca-p-NO2-aniline [Compound 18], for which, in assay [1] (setting [4]), the “MPA: ability of the compound to promote polymerization of tubulin, expressed as percentage of the activity of paclitaxel” value is listed as “b (b = 30-70%)”. Besides, in assay [2] (setting [5]), the EC50 lay within 10 to 500 nM.

For PXL-10Ca-piperidine [Compound 6], the “MPA: ability of the compound to promote polymerization of tubulin, expressed as percentage of the activity of paclitaxel” value in assay [1] (setting [4]) is “b (b = 30-70%)”. Further, the 50% effective concentration (EC50) in assay [2] (setting [5]) is < 10 nM.

For PXL-10CaSpermine [Compound 16], the “MPA: ability of the compound to promote polymerization of tubulin, expressed as percentage of the activity of paclitaxel” value in assay [1] (setting [4]) was “a (a > 70%)”. Moreover, in assay [2], the half-maximal effective concentration (EC50) was > 500 nM.

A word on the EC50: it is the concentration giving half of the maximal effect.
